Results reported in PubChem BioAssay (NCI).
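How tested: cells in 96-well plates exposed to compound for 48 hours at five concentrations. TGI: total growth inhibition.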

How the values were obtained:
Test in all cases: inhibition of tumour cell growth, NCI panel, 48 h
786-0 renal = tested on: 786-0 renal
A498 renal = tested on: A498 renal
A549 NSCLC = tested on: A549 NSCLC
ACHN renal = tested on: ACHN renal
BT-549 breast = tested on: BT-549 breast
CAKI-1 renal = tested on: CAKI-1 renal
CCRF-CEM leukemia = tested on: CCRF-CEM leukemia
COLO 205 colon = tested on: COLO 205 colon
DU-145 prostate = tested on: DU-145 prostate
EKVX NSCLC = tested on: EKVX NSCLC
HCC-2998 colon = tested on: HCC-2998 colon
HCT-116 colon = tested on: HCT-116 colon
HCT-15 colon = tested on: HCT-15 colon
HL-60(TB) leukemia = tested on: HL-60(TB) leukemia
HOP-62 NSCLC = tested on: HOP-62 NSCLC
HOP-92 NSCLC = tested on: HOP-92 NSCLC
HS 578T breast = tested on: HS 578T breast
HT29 colon = tested on: HT29 colon
IGROV1 ovarian = tested on: IGROV1 ovarian
K-562 leukemia = tested on: K-562 leukemia
KM12 colon = tested on: KM12 colon
LOX IMVI melanoma = tested on: LOX IMVI melanoma
M14 melanoma = tested on: M14 melanoma
MALME-3M melanoma = tested on: MALME-3M melanoma
MCF7 breast = tested on: MCF7 breast
MDA-MB-231 breast = tested on: MDA-MB-231 breast
MDA-MB-435 = tested on: MDA-MB-435
MDA-N = tested on: MDA-N
MOLT-4 leukemia = tested on: MOLT-4 leukemia
NCI-H23 lung = tested on: NCI-H23 lung
NCI-H460 lung = tested on: NCI-H460 lung
NCI-H522 lung = tested on: NCI-H522 lung
NCI/ADR-RES ovarian = tested on: NCI/ADR-RES ovarian
OVCAR-3 ovarian = tested on: OVCAR-3 ovarian
OVCAR-5 ovarian = tested on: OVCAR-5 ovarian
OVCAR-8 ovarian = tested on: OVCAR-8 ovarian
PC-3 prostate = tested on: PC-3 prostate
RPMI-8226 leukemia = tested on: RPMI-8226 leukemia
RXF 393 renal = tested on: RXF 393 renal
SF-268 CNS = tested on: SF-268 CNS
SF-295 CNS = tested on: SF-295 CNS
SF-539 CNS = tested on: SF-539 CNS
SK-MEL-2 melanoma = tested on: SK-MEL-2 melanoma
SK-MEL-28 melanoma = tested on: SK-MEL-28 melanoma
SK-MEL-5 melanoma = tested on: SK-MEL-5 melanoma
SK-OV-3 ovarian = tested on: SK-OV-3 ovarian
SN12C renal = tested on: SN12C renal
SNB-19 CNS = tested on: SNB-19 CNS
SNB-75 CNS = tested on: SNB-75 CNS
SR leukemia = tested on: SR leukemia
SW-620 colon = tested on: SW-620 colon
T-47D breast = tested on: T-47D breast
TK-10 renal = tested on: TK-10 renal
U251 CNS = tested on: U251 CNS
UACC-257 melanoma = tested on: UACC-257 melanoma
UACC-62 melanoma = tested on: UACC-62 melanoma
UO-31 renal = tested on: UO-31 renal
NCI-H226 lung = tested on: NCI-H226 lung
OVCAR-4 ovarian = tested on: OVCAR-4 ovarian

COc1ccc(OC)c2sc(N3C(=O)/C(=C/c4ccc(Cl)cc4)N=C3c3ccccc3)nc12
TGI (786-0 renal): > 100 µM
TGI (A498 renal): > 100 µM
TGI (A549 NSCLC): > 100 µM
TGI (ACHN renal): > 100 µM
TGI (BT-549 breast): > 100 µM
TGI (CAKI-1 renal): > 100 µM
TGI (CCRF-CEM leukemia): > 100 µM
TGI (COLO 205 colon): > 100 µM
TGI (DU-145 prostate): > 100 µM
TGI (EKVX NSCLC): > 100 µM
TGI (HCC-2998 colon): > 100 µM
TGI (HCT-116 colon): > 100 µM
TGI (HCT-15 colon): > 100 µM
TGI (HL-60(TB) leukemia): > 100 µM
TGI (HOP-62 NSCLC): > 100 µM
TGI (HOP-92 NSCLC): > 100 µM
TGI (HS 578T breast): > 100 µM
TGI (HT29 colon): > 100 µM
TGI (IGROV1 ovarian): > 100 µM
TGI (K-562 leukemia): 86.6 µM
TGI (KM12 colon): > 100 µM
TGI (LOX IMVI melanoma): > 100 µM
TGI (M14 melanoma): > 100 µM
TGI (MALME-3M melanoma): > 100 µM
TGI (MCF7 breast): 79.2 µM
TGI (MDA-MB-231 breast): > 100 µM
TGI (MDA-MB-435): > 100 µM
TGI (MDA-N): > 100 µM
TGI (MOLT-4 leukemia): 66.8 µM
TGI (NCI-H23 lung): > 100 µM
TGI (NCI-H460 lung): > 100 µM
TGI (NCI-H522 lung): > 100 µM
TGI (NCI/ADR-RES ovarian): > 100 µM
TGI (OVCAR-3 ovarian): > 100 µM
TGI (OVCAR-5 ovarian): > 100 µM
TGI (OVCAR-8 ovarian): > 100 µM
TGI (PC-3 prostate): > 100 µM
TGI (RPMI-8226 leukemia): > 100 µM
TGI (RXF 393 renal): > 100 µM
TGI (SF-268 CNS): > 100 µM
TGI (SF-295 CNS): > 100 µM
TGI (SF-539 CNS): > 100 µM
TGI (SK-MEL-2 melanoma): > 100 µM
TGI (SK-MEL-28 melanoma): > 100 µM
TGI (SK-MEL-5 melanoma): > 100 µM
TGI (SK-OV-3 ovarian): > 100 µM
TGI (SN12C renal): > 100 µM
TGI (SNB-19 CNS): > 100 µM
TGI (SNB-75 CNS): > 100 µM
TGI (SR leukemia): > 100 µM
TGI (SW-620 colon): > 100 µM
TGI (T-47D breast): 78.5 µM
TGI (TK-10 renal): > 100 µM
TGI (U251 CNS): > 100 µM
TGI (UACC-257 melanoma): > 100 µM
TGI (UACC-62 melanoma): > 100 µM
TGI (UO-31 renal): > 100 µM

CC(=O)C(I(OS(=O)(=O)c1ccc(C)cc1)c1ccccc1)=P(c1ccccc1)(c1ccccc1)c1ccccc1
TGI (786-0 renal): > 100 µM
TGI (A498 renal): > 100 µM
TGI (A549 NSCLC): 72.8 µM
TGI (ACHN renal): > 100 µM
TGI (BT-549 breast): 46.3 µM
TGI (CAKI-1 renal): > 100 µM
TGI (CCRF-CEM leukemia): 78.3 µM
TGI (COLO 205 colon): 31.4 µM
TGI (DU-145 prostate): 58.7 µM
TGI (EKVX NSCLC): 70.8 µM
TGI (HCC-2998 colon): 39 µM
TGI (HCT-116 colon): 50.2 µM
TGI (HCT-15 colon): > 100 µM
TGI (HL-60(TB) leukemia): 76.3 µM
TGI (HOP-62 NSCLC): 59.6 µM
TGI (HOP-92 NSCLC): 54.7 µM
TGI (HS 578T breast): 68.8 µM
TGI (HT29 colon): 49.6 µM
TGI (IGROV1 ovarian): 73.5 µM
TGI (K-562 leukemia): > 100 µM
TGI (KM12 colon): 38.2 µM
TGI (M14 melanoma): 59.3 µM
TGI (MALME-3M melanoma): 30 µM
TGI (MCF7 breast): > 100 µM
TGI (MDA-MB-231 breast): 69.3 µM
TGI (MDA-MB-435): 32.4 µM
TGI (MDA-N): 33.2 µM
TGI (MOLT-4 leukemia): > 100 µM
TGI (NCI-H226 lung): 38.8 µM
TGI (NCI-H23 lung): 42.7 µM
TGI (NCI-H460 lung): > 100 µM
TGI (NCI-H522 lung): 24.5 µM
TGI (NCI/ADR-RES ovarian): > 100 µM
TGI (OVCAR-3 ovarian): 56.1 µM
TGI (OVCAR-4 ovarian): 37 µM
TGI (OVCAR-5 ovarian): 60.2 µM
TGI (OVCAR-8 ovarian): > 100 µM
TGI (PC-3 prostate): > 100 µM
TGI (RPMI-8226 leukemia): 61.1 µM
TGI (RXF 393 renal): > 100 µM
TGI (SF-268 CNS): 80.4 µM
TGI (SF-295 CNS): > 100 µM
TGI (SF-539 CNS): 39.1 µM
TGI (SK-MEL-2 melanoma): 36 µM
TGI (SK-MEL-28 melanoma): 36.4 µM
TGI (SK-MEL-5 melanoma): 63.3 µM
TGI (SK-OV-3 ovarian): > 100 µM
TGI (SN12C renal): 69.2 µM
TGI (SNB-19 CNS): > 100 µM
TGI (T-47D breast): 85.3 µM
TGI (TK-10 renal): > 100 µM
TGI (U251 CNS): 98.5 µM
TGI (UACC-257 melanoma): 59 µM
TGI (UACC-62 melanoma): 17 µM
TGI (UO-31 renal): > 100 µM
